Measured values reported in patent publication US10154992B2, “Compounds and methods for treating HIV infection” (THE REGENTS OF THE UNIVERSITY OF CALIFORNIA, priority 2016, dated 2018).
Read-outs that look alike come from different tables or passages of the source.

Columns and labels:
Assay type in all cases: cell-based
[1] = tested on: HIV-1 isolate NL4-3 deleted for Vpu; assay: Replication assay in Jurkat cells with Vpu-deleted virus; details: Human immunodeficiency virus 1, NL43, Jurkat, read-out: IC50 value for isolate NL4-3 deleted for Vpu
Method: FIG. 10. In embodiments, HIV viruses that are defective or deleted for Vpu are resistant to the compounds described herein. Replication assays with HIV-1 isolate NL4-3 or NL4-3 deleted for Vpu in Jurkat cells. Replication spreading assays were performed with compound at doses ranging from 1 nM to 316 nM in triplicate. Supernatants were collected every 48-72 hours and p24 values were determined by ELISA. FIG. 10 corresponds to analog 4e with HIV-1 isolate NL4-3 in Jurkat cells and with HIV-1 isolate NL4-3 deleted for Vpu in Jurkat cells.
Virus spreading assay. Jurkat (E6-1) cells (NIH AIDS Reagent Program) were cultured in RPMI media supplemented with 25 mM HEPES pH 7.4, 10% heat-inactivated fetal calf serum (Hyclone, Waltham Mass.), and 1% penicillin/streptomycin. 2.5×10^5 Jurkat cells were inoculated with 250 pg p24 in 250 μl media in a 96-well flat bottom polystyrene cell culture microplate. Input virus was removed after 18 hours via washing cells phosphate-buffered saline (PBS). Cells were resuspended in 250 μl of media containing compounds at the described concentrations. […] Viral replication was quantified using ELISA to quantify p24 viral capsid protein in the culture supernatant. […] Toxicity was monitored using the MTT cell viability assay (Mosmann, T. (1983). J Immunol Methods 65, 55-63). […]

HIV-1 isolate NL4-3 = assay: Virus spreading / replication assay in Jurkat cells, p24 ELISA
Method: (§1) Virus spreading assay. Jurkat (E6-1) cells (NIH AIDS Reagent Program) were cultured in RPMI media supplemented with 25 mM HEPES pH 7.4, 10% heat-inactivated fetal calf serum (Hyclone, Waltham Mass.), and 1% penicillin/streptomycin. 2.5×10^5 Jurkat cells were inoculated with 250 pg p24 in 250 μl media in a 96-well flat bottom polystyrene cell culture microplate. Input virus was removed after 18 hours via washing cells phosphate-buffered saline (PBS). Cells were resuspended in 250 μl of media containing compounds at the described concentrations. Cells were incubated at 37° C., 5% CO2 and supernatant samples were removed every 48 hours and replaced with fresh media containing the compounds. Viral replication was quantified using ELISA to quantify p24 viral capsid protein in the culture supernatant. Mouse monoclonal and rabbit polyclonal α-p24 antibodies used in the ELISA were obtained from the NIH AIDS Reagent Program. Toxicity was monitored using the MTT cell viability assay (Mosmann, T. (1983). J Immunol Methods 65, 55-63).

[2] = MTT cell viability in Jurkat replication assay; details: human, Jurkat (E6-1) cells, pH 7.4; Jurkat infectivity assay; read-out: TC50 (MTT cell viability)
Method: as §1

Compound `NC(=O)c1cc2c(-c3ccc4c(c3)CCO4)cncc2s1` [Compound 4e, 4-(2,3-dihydro-1-benzofuran-5-yl)thieno[2,3-c]pyridine-2-carboxamide] has an IC50 [1] of 150 nM, an IC50 (HIV-1 isolate NL4-3; Human immunodeficiency virus 1, NL43, Jurkat, FIG. 17, first pair of values, read-out: IC50 NL4-3 control) of 6.2 nM and an IC50 (HIV-1 isolate NL4-3; Human immunodeficiency virus 1, NL43, Jurkat, FIG. 17, second pair of values ('Notably'), read-out: IC50 control) of 25.9 nM. The IC50 (HIV-1 isolate NL4-3; Human immunodeficiency virus 1, NL43, Jurkat, Table 2, NL4-3, read-out: Jurkat HIV-1 replication assay) was less than 100 nM, the IC50 (HIV-1 isolate NL4-3; Human immunodeficiency virus 1, NL43, Jurkat, read-out: IC50 in the HIV replication assay) was 4 nM and the IC50 (HIV-1 isolate NL4-3; Human immunodeficiency virus 1, NL43, Jurkat cells, wild type virus, Vpu experiment (FIG. 10), read-out: IC50 value for isolate NL4-3) was 5 nM. For the same compound, the CC50 [2] was less than 40000 nM.
